The values that follow come from publication PMC8689208, “Structure of a monomeric photosystem II core complex from a cyanobacterium acclimated to far-red light reveals the functions of chlorophylls d and f” (The Journal of Biological Chemistry, 2021).

The assay has as its target T1, apo-FRL-PSII (reaction centre PsbA3/PsbD3 sites) (Synechococcus sp. PCC 7335, UniProt B4WKI3+Z9EN74SDD1).
T1 construct: native monomeric core complex from FRL-acclimated cells, ~226 kDa modelled; His6 tag at C-terminus of PsbC2; lacks OEC, extrinsic subunits and PsbH2 in map; PsbF2 assignment tentative; one unknown helix; with Photosystem II CP47 reaction center protein; Photosystem II CP43 reaction center protein; Cytochrome b559 subunit alpha; Cytochrome b559 subunit beta; Photosystem II reaction center protein I; Photosystem II reaction center protein K
Kind of assay: cryo-EM structure, […] Å. Conditions: QA site; QB absent. Format: binding.

As for `CC(C)=CCC/C(C)=C/CC/C(C)=C/CC/C(C)=C/CC/C(C)=C/CC/C(C)=C/CC/C(C)=C/CC/C(C)=C/CC/C(C)=C/CC1=CC(=O)C(C)=C(C)C1=O` [plastoquinone], the “cryo-EM structure, 2.25 Å” value is on record as “one heme b, one plastoquinone, one NH-Fe ion”.
